The source made the active and inactive calls.
Tests used:
Insulin-degrading enzyme [1] = target: T1, Insulin-degrading enzyme (Homo sapiens, UniProt P14735); assay: recombinant IDE activation, cell-free – biochemical, fluorescence polarization, counter-screen for IDE activator project, dose response (AID 588681)
T1 sequence (P14735 whole entry): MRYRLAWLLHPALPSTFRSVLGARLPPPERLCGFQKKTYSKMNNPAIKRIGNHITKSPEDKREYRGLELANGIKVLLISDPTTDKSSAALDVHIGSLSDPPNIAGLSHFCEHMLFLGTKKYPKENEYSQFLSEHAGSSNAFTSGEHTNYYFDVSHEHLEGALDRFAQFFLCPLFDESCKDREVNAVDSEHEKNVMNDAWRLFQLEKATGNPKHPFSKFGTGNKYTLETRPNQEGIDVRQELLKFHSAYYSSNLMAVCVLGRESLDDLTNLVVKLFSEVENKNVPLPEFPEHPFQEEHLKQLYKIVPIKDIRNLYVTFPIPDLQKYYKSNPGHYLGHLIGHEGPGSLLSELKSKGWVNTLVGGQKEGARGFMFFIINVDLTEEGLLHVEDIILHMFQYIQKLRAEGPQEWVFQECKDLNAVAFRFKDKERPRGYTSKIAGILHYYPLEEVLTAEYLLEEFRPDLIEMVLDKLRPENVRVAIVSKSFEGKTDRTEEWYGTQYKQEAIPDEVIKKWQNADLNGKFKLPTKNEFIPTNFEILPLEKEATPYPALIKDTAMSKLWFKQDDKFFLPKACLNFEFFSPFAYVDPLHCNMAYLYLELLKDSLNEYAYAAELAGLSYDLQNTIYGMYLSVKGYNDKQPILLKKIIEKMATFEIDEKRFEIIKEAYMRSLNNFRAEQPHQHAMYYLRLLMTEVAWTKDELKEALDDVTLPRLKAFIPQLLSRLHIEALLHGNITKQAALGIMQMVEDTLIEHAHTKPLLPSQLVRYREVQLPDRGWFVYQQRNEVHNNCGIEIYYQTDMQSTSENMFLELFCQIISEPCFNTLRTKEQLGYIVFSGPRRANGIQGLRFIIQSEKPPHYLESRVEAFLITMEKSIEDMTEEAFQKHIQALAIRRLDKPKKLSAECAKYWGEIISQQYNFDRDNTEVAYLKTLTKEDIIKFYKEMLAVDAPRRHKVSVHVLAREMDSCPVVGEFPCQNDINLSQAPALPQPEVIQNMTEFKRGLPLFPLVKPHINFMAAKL

Insulin-degrading enzyme [2] = target: T1, Insulin-degrading enzyme; assay: cellular IDE activation of Abeta substrate cleavage – fluorescence polarization, HEK cells, dose response (AID 588439); assay type: functional, cell-based
Bcl-2-related protein A1 = target: T2, Bcl-2-related protein A1 (Mus musculus, UniProt Q07440); assay type: functional;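 further: confirmatory dose–response counterscreen on Bfl-1, used to check hits from a UBC13 polyubiquitin inhibitor campaign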
T2 sequence (Q07440 whole entry): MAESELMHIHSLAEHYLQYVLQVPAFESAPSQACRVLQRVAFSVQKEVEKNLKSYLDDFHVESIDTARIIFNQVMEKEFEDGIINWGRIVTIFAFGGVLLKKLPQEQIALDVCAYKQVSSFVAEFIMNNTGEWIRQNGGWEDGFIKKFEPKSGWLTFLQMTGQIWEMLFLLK

[3] = target: T3, Ubiquitin-conjugating enzyme E2 N (Homo sapiens, UniProt P61088); assay type: functional
T3 sequence (P61088 whole entry): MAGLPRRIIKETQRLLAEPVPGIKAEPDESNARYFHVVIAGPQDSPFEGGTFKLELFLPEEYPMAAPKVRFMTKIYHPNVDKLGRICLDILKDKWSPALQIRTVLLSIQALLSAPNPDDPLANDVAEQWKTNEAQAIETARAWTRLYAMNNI

HEK293 [4] = assay: optical interference in Abeta FP readout, dose response, artefact control for IDE activator project, biochemical, fluorescence polarization (AID 588442); assay type: functional, cell-based; conditions: Homo sapiens
[5] = target: T3, Ubiquitin-conjugating enzyme E2 N; assay type: functional; remark: listed apart in the source
HEK293 [6] = assay: membrane integrity loss in HEK cells – cell-based, fluorescence, cytotoxicity control for IDE activator project, dose response (AID 588440); assay type: functional; conditions: Homo sapiens;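 further: cytotoxicity by LDH release measuring loss of membrane integrity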
Aurora kinase A = Aurora kinase A (Homo sapiens, UniProt O14965); assay type: functional;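 further: value from the Navigating the Kinome kinase panel profiling, panel entry STK6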
Chain of Aurora kinase A (O14965 whole entry): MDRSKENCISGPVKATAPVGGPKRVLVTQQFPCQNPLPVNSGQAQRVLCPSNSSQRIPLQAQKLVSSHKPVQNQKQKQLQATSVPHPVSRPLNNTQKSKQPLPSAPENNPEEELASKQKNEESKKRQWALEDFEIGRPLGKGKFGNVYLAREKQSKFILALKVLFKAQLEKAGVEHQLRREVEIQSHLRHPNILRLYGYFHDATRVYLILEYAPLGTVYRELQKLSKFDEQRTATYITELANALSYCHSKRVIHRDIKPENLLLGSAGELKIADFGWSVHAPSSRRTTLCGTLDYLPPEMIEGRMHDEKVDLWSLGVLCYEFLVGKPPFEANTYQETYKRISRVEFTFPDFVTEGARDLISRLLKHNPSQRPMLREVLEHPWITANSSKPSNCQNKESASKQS

Aurora kinase B = Aurora kinase B (Homo sapiens, UniProt Q96GD4); assay type: functional
Chain of Aurora kinase B (Q96GD4 whole entry): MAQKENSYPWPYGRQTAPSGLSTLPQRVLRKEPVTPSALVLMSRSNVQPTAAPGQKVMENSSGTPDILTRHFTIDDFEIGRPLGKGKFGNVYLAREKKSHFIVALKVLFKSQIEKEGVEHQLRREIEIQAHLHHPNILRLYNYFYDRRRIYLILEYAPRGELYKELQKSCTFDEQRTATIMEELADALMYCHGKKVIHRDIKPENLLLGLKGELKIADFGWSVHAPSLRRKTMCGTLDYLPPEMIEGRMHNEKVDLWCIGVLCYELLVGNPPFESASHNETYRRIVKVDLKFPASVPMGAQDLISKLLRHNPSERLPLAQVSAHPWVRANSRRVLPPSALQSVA

Row | Compound | EC50 (Insulin-degrading enzyme [1]) | EC50 (Insulin-degrading enzyme [2]) | IC50 (Bcl-2-related protein A1) | IC50 [3] | EC50 (HEK293 [4]) | IC50 [5] | IC50 (HEK293 [6]) | Ki (Aurora kinase A) | Ki (Aurora kinase B)
1 | C#CCOCCOCCOCCNc1nc(N2CCN(C(=O)CCCCCCCCCCNC(=O)[C@H](CCCCN)n3cc(C)nn3)CC2)nc(N2CCN(C(=O)CCCCCCCCCCNC(=O)[C@H](CO)n3cc(CCCSC)nn3)CC2)n1 | > 6.08 µM (active) | > 54.7 µM (inactive) | > 20 µM (inactive) | 6.96 µM (active) | > 55.9 µM (inactive) | 4.05 µM (active) | 9.88 µM (active) |  | 
2 | Nc1ncnc2sc3c(c12)-c1ccc(NC(=O)Nc2cccc(C(F)(F)F)c2)cc1CC3 |  |  |  |  |  |  |  | 100 nM (active) | 1.26 nM (active)
